Results on two compounds are retold here after ChEMBL document CHEMBL5126669, “Discovery of 5,7-Dihydro-6H-pyrrolo[2,3-d]pyrimidin-6-ones as Highly Selective CDK2 Inhibitors” (ACS Med Chem Lett, 2022).

Usually IC50 stands for the concentration that gives 50% inhibition. Usually Cmax stands for the highest concentration seen after dosing. For orientation: solubility means how much of the substance goes into solution per volume. The term AUC denotes concentration integrated over time. Usually bioavailability stands for the share of a dose that reaches the circulation, judged against a reference dose that is usually intravenous. By Vdss is commonly meant a proportionality between amount in the body and measured concentration, not a real space. Broadly, the inhibition is how much of the control response was suppressed.

The structures appear in SMILES notation.

The species entered for data set [1] is Homo sapiens. Briefly: Selectivity ratio of IC50 for inhibition of CDK6/cyclin D1 (unknown origin) to IC50 for inhibition recombinant human N-terminal GST-tagged full-length CDK2/Flag-tagged cyclinE1 expressed in baculovirus expression system.
In data set [2] the target is Cyclin-dependent kinase 2/cyclin E1 (Homo sapiens, UniProt P24941). The experiment in a line: Inhibition of recombinant human N-terminal GST-tagged full-length CDK2/Flag-tagged cyclinE1 expressed in baculovirus expression system using eIF4E-binding protein-1 peptide as substrate incubated for 1 hr in presence of ATP by HTRF assay. (In general: In TR-FRET formats the signal depends on donor and acceptor labels being close together.)

The species named for data set [3] is Homo sapiens. The experiment in a line: Selectivity ratio of IC50 for inhibition of CDK1/cyclin B (unknown origin) to IC50 for inhibition recombinant human N-terminal GST-tagged full-length CDK2/Flag-tagged cyclinE1 expressed in baculovirus expression system.
A short description of data set [4]: Intrinsic clearance in human liver microsomes at 1 uM measured upto 30 mins by LC/MS analysis. The format is ADME, Microsome. The settings on record: read-out: CLH (converted).
Data set [5] deals with T1, Cyclin-dependent kinase 2 (Homo sapiens, UniProt P24941). Briefly: Inhibition of CDK2 in human COV318 cells incubated for overnight in presence of human whole blood by HTRF assay. The format is cell-based.
The species named for data set [6] is Homo sapiens. Briefly: Selectivity ratio of IC50 for inhibition of CDK4/cyclin D1 (unknown origin) to IC50 for inhibition recombinant human N-terminal GST-tagged full-length CDK2/Flag-tagged cyclinE1 expressed in baculovirus expression system.
Data set [7] is filed under the species Homo sapiens. Briefly: Selectivity ratio of IC50 for inhibition of CDK1 in human OVCAR3 cells to IC50 for inhibition of CDK2 in human COV318 cells. The data set is classed as cell-based.
For data set [8], the target named is Cyclin-dependent kinase 1 (Homo sapiens, UniProt P06493). Briefly: Inhibition of CDK1 in human OVCAR3 cells incubated for 30 mins in presence of pNPM T199 by western blot analysis. The data set is classed as cell-based, OVCAR-3. On the technique in general: Immunoblotting shows a protein as a band on a membrane.
For data set [9], the target named is T1, Cyclin-dependent kinase 2. The experiment in a line: Inhibition of CDK2 in human COV318 cells incubated for overnight in presence of phospho-Rb by HTRF assay. The data set is classed as cell-based.
Data set [10] is described as follows: Metabolic stability in Cynomolgus monkey liver microsomes assessed as compound demethylation at 5 uM measured upto 30 mins by HPLC/MS analysis. The format is ADME, Macaca fascicularis, Microsome. The following applies: 0.5 h. A general note: Liver microsomes are a subcellular fraction often used to study metabolism.
Data set [11] in a line: Hepatic blood flow in Sprague-Dawley rat at 0.5 mg/kg, iv measured upto 24 hrs by LC-MS/MS analysis. The data set is classed as ADME, organism-based. The settings on record: in vivo.
A short description of data set [12]: Metabolic stability in Cynomolgus monkey liver microsomes assessed as remaining parent compound at 5 uM measured upto 30 mins by HPLC/MS analysis. The data set is classed as ADME, Macaca fascicularis, Microsome. The settings on record: 0.5 h.
Another data set has as its target Cytochrome P450 2C9 (Homo sapiens, UniProt P11712). Briefly: Inhibition of CYP2C9 (unknown origin) at >25 uM. The format is ADME.
Data set [13] in a line: Metabolic stability in human liver microsomes assessed as remaining parent compound at 5 uM measured upto 30 mins by HPLC/MS analysis. The settings on record: liver microsomes, read-out: Stability. The format is ADME, Microsome.
Data set [14] is described as follows: Cmax in Sprague-Dawley rat at 3 mg/kg, po measured upto 24 hrs by LC-MS/MS analysis. The data set is classed as ADME, organism-based. Set-up: dose 3 mg/kg, time < 24 hrs, route po. The following applies: in vivo.
The nature of data set [15]: Metabolic stability in Cynomolgus monkey liver microsomes assessed as compound oxidation at 5 uM measured upto 30 mins by HPLC/MS analysis. The format is ADME, Macaca fascicularis, Microsome. The settings on record: 0.5 h.
Data set [16] in a line: Metabolic stability in human liver microsomes assessed as compound demethylation at 5 uM measured upto 30 mins by HPLC/MS analysis. The settings on record: 0.5 h. The data set is classed as ADME, Microsome.
Data set [17] in a line: Metabolic stability in Sprague-Dawley rat liver microsomes assessed as compound oxidation at 5 uM measured upto 30 mins by HPLC/MS analysis. The following applies: 0.5 h. The format is ADME, Microsome.
For the next data set, the target named is T2, Cytochrome P450 2B6 (Homo sapiens, UniProt P20813).
T2 sequence (P20813 whole entry): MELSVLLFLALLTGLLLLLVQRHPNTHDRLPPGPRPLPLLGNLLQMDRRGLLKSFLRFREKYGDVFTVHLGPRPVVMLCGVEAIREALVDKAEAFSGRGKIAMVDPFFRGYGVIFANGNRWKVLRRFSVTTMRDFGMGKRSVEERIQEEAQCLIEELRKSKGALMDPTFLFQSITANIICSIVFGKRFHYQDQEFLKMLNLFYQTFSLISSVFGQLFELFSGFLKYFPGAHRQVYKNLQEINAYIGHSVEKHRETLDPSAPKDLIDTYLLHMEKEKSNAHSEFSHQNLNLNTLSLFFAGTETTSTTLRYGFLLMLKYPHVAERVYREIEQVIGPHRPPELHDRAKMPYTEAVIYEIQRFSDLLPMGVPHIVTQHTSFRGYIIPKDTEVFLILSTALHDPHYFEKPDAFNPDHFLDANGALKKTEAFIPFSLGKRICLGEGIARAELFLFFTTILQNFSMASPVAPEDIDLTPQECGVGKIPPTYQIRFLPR
Briefly: Inhibition of CYP2B6 (unknown origin) at >25 uM. The data set is classed as ADME.

Data set [18] is described as follows: Solubility of compound. The format is physicochemical.
Data set [19] in a line: Metabolic stability in Sprague-Dawley rat liver microsomes assessed as compound demethylation at 5 uM measured upto 30 mins by HPLC/MS analysis. The format is ADME, Microsome. The following applies: 0.5 h.
The target of the next data set is Cytochrome P450 3A4 (Homo sapiens, UniProt P08684). The experiment in a line: Inhibition of CYP3A4 (unknown origin) at >25 uM. The data set is classed as ADME.
Data set [20] in a line: AUC in Sprague-Dawley rat at 3 mg/kg, po measured upto 24 hrs by LC-MS/MS analysis. The format is ADME, organism-based. Set-up: dose 3 mg/kg, time < 24 hrs, route po. The following applies: in vivo.
Data set [21] is described as follows: Metabolic stability in Sprague-Dawley rat liver microsomes assessed as remaining parent compound at 5 uM measured upto 30 mins by HPLC/MS analysis. The format is ADME, Microsome. The following applies: 0.5 h.
Data set [22] in a line: Metabolic stability in human liver microsomes assessed as compound oxidation at 5 uM measured upto 30 mins by HPLC/MS analysis. The data set is classed as ADME, Microsome. The settings on record: liver microsomes, read-out: Drug metabolism.
The next data set deals with T3, Cytochrome P450 2C8 (Homo sapiens, UniProt P10632).
T3 sequence (P10632 whole entry): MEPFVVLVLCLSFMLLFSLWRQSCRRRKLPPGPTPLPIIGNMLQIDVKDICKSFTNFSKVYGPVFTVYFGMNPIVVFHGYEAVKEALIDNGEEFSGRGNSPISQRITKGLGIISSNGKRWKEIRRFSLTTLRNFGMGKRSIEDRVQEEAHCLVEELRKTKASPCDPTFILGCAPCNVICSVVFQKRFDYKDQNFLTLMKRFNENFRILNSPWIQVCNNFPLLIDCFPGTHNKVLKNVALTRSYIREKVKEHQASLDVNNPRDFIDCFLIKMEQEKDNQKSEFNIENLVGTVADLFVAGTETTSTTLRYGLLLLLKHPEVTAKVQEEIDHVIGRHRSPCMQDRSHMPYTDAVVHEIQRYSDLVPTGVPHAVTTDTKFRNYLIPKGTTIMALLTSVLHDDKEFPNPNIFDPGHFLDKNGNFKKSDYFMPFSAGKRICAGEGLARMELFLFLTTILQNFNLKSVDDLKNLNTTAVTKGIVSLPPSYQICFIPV
Briefly: Inhibition of CYP2C8 (unknown origin) at >25 uM. The format is ADME.

Data set [23] in a line: Oral bioavailability in Sprague-Dawley rat at 3 mg/kg measured upto 24 hrs by LC-MS/MS analysis. The format is ADME, organism-based. The following applies: in vivo.
A further data set concerns the target Cytochrome P450 2D6 (Homo sapiens, UniProt P10635). The experiment in a line: Inhibition of CYP2D6 (unknown origin) at >25 uM. The data set is classed as ADME.
The nature of data set [24]: Volume of distribution at steady state in Sprague-Dawley rat at 0.5 mg/kg, iv measured upto 24 hrs by LC-MS/MS analysis. The following applies: in vivo, iv, 0.5 mg/kg, 24 h. The data set is classed as ADME, organism-based.
The target of the next data set is Cytochrome P450 2C19 (Homo sapiens, UniProt P33261). The experiment in a line: Inhibition of CYP2C19 (unknown origin) at >25 uM. The format is ADME.
The target in the next data set is T4, Cytochrome P450 1A2 (Homo sapiens, UniProt P05177).
T4 sequence (P05177 whole entry): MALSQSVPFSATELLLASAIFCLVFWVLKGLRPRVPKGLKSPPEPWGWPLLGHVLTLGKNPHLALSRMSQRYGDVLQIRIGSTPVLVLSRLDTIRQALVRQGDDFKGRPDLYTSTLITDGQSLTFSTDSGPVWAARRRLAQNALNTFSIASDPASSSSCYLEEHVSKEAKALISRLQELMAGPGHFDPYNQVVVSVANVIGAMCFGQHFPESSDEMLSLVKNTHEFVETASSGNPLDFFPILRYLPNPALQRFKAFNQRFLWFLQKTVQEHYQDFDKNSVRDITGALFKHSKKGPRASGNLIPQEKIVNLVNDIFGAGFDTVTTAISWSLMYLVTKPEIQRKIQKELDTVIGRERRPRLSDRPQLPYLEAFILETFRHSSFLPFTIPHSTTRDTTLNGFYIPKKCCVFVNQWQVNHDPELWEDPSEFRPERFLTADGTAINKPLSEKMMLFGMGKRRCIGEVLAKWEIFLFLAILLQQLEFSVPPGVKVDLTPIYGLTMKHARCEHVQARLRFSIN
Briefly: Inhibition of CYP1A2 (unknown origin) at >25 uM. The data set is classed as ADME.

For a further data set, the target named is hERG (KCNH2) (Homo sapiens, UniProt Q12809). Briefly: Displacement of [3H]Dofetilide from human ERG at 10 uM incubated for 24 hrs by filter binding assay relative to control. The format is toxicity. The following applies: probe [3H]dofetilide.
hERG (KCNH2), sequence (Q12809 whole entry): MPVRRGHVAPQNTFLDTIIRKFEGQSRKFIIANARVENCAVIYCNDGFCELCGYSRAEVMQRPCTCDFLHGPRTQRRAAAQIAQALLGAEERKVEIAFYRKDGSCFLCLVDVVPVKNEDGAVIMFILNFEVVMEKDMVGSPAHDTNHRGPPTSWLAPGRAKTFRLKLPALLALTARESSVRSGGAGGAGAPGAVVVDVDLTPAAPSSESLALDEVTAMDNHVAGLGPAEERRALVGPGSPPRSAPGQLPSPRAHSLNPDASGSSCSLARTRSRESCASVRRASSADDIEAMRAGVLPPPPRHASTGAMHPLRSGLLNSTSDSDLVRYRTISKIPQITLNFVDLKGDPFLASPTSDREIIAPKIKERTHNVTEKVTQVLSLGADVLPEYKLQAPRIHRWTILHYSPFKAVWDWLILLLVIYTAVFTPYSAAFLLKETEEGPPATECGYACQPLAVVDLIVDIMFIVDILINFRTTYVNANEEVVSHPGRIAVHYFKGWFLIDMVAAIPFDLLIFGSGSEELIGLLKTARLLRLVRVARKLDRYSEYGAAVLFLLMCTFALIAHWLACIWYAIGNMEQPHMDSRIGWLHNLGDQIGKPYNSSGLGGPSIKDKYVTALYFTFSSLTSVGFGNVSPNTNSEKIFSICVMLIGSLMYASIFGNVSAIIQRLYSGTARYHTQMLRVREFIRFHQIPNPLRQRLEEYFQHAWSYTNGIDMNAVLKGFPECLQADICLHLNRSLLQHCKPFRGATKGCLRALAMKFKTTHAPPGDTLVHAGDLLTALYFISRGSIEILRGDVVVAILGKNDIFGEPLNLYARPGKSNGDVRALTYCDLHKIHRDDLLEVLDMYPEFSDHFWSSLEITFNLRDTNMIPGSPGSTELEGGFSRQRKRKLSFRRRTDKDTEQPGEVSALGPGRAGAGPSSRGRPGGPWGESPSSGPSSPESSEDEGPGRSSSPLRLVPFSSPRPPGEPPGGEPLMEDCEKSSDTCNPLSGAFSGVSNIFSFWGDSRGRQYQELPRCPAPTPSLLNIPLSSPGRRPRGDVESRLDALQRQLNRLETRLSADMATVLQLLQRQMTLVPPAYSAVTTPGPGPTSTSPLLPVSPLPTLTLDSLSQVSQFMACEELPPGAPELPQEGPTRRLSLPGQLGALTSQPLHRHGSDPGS

Cytochrome P450 2C9, sequence (P11712 whole entry): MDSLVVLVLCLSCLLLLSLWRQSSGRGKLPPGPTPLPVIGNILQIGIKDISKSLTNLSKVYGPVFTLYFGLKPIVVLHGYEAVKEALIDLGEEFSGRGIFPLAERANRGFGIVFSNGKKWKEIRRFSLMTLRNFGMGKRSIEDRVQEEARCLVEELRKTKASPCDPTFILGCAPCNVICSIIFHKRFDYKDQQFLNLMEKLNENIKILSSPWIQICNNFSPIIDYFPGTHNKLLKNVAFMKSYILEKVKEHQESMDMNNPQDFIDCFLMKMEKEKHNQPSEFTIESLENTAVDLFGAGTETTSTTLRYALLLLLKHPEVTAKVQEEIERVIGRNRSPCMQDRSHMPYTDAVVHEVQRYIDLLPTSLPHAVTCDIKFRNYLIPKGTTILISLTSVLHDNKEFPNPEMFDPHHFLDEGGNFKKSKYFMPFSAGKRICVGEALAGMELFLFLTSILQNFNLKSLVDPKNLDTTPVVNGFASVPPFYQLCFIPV
Cytochrome P450 3A4, sequence (P08684 whole entry): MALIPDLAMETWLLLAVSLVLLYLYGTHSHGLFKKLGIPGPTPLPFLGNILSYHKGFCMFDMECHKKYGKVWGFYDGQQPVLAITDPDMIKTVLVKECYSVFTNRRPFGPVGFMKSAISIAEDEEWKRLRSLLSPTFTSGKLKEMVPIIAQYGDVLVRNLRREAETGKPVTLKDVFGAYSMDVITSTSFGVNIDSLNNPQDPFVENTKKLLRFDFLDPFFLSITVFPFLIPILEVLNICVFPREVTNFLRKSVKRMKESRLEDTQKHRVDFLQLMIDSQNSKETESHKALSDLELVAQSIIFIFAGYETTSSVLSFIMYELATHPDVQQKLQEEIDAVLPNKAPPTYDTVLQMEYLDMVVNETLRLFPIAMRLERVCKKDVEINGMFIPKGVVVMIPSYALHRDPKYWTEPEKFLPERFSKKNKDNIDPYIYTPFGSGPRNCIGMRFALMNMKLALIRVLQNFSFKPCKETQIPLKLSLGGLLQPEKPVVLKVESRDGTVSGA
Cyclin-dependent kinase 1, sequence (P06493 whole entry): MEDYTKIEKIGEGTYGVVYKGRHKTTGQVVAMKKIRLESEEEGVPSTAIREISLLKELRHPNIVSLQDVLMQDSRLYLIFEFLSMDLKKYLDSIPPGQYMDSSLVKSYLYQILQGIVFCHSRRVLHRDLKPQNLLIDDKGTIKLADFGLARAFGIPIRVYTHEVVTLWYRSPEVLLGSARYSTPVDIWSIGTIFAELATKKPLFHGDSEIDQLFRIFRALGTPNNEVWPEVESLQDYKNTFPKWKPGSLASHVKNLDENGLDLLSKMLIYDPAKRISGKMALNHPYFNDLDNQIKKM
Cytochrome P450 2C19, sequence (P33261 whole entry): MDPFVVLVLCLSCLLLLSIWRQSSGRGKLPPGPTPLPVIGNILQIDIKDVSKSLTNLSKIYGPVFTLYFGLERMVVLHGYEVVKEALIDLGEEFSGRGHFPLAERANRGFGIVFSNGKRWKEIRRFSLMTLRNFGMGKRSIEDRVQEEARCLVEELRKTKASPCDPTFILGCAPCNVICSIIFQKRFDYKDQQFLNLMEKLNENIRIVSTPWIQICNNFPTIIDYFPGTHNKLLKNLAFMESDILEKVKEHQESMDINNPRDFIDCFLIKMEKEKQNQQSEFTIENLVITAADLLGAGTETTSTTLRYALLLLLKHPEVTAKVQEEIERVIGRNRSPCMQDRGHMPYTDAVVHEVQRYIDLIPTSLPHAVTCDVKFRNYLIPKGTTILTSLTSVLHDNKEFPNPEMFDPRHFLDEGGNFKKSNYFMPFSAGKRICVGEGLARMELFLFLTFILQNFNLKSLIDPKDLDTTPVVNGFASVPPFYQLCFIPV
Cytochrome P450 2D6, sequence (P10635 whole entry): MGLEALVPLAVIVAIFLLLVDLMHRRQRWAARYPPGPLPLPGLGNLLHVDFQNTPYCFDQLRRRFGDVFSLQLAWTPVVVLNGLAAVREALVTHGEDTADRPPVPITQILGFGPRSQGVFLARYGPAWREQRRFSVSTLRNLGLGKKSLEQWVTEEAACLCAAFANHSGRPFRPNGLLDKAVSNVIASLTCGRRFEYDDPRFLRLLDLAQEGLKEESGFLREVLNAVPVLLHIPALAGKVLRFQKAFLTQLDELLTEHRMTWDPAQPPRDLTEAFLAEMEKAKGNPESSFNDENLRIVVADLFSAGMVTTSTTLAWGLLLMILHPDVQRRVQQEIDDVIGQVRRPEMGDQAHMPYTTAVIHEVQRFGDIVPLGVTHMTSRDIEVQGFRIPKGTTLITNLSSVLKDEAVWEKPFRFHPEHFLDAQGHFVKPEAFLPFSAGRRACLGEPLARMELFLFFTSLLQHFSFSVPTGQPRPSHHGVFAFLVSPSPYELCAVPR

With `NS(=O)(=O)c1ccc(Nc2ncc3c(n2)N(C2CCCC2)C(=O)C32CC2)cc1`, the Ratio IC50 amounted to 7 in the data set listed under Homo sapiens [1], 250 in the data set listed under Homo sapiens [3], 5 in the data set filed under Homo sapiens [6] and 245 in the data set filed under Homo sapiens [7]. Besides, the half-maximal inhibitory concentration (IC50) in data set [2] turned out to be 4 nM; in [5], 7600 nM; in data set [8], 1200 nM; in data set [9] it was 4.9 nM. For the same compound, the predicted hepatic clearance at 1 µM in data set [4] was 13.3 mL/min/kg.
Take `[2H]C([2H])([2H])NS(=O)(=O)c1ccc(Nc2ncc3c(n2)N([C@@H]2CCC[C@@]2(C)O)C(=O)C32CC2)cc1` (relative stereo): the Drug metabolism in data set [10] was 71%; in data set [15], 12%; in [16] it was 10%; in [17] it was 54%; in data set [19] it was 23%. The compound further displayed a QH in data set [11] of more than 100%. Further, the results for the Stability in data set [12] and in data set [21] were 20% and 4.4%, respectively. The predicted hepatic clearance at 1 µM in [4] is less than 8.33 mL/min/kg. Moreover, the “inhibition (INH)” value against Cytochrome P450 2C9, at Cytochrome P450 2B6, on Cytochrome P450 3A4, on Cytochrome P450 2C8, on Cytochrome P450 2D6 and against Cytochrome P450 2C19 was “Active” each time. For the same compound, at Cytochrome P450 1A2, the “inhibition (INH)” value is recorded as “Active”. The remaining at 0.5 h, 5 µM in data set [13] stood at 85%. In addition, the peak concentration (Cmax) in [14] was 752 nM. Also, the IC50 in data set [5] was found to be 746 nM. In data set [18], this compound came in with a solubility of more than 400 µg/mL. The AUC at 24 h in [20] is 0.666 µM·h. Besides, in [22], the metabolised at 0.5 h, 5 µM turned out to be 5%. For the same compound, in data set [23], the bioavailability worked out at 92%. The volume of distribution (Vdss) in data set [24] came out at 3.2 L/kg. Further, the inhibition at 24 h, 10 µM at hERG (KCNH2) was 16%.
